Laboratory results taken from publication PMC6694196, “Intrinsic tryptophan fluorescence spectroscopy reliably determines galectin-ligand interactions” (Scientific Reports, 2019).
Several values for one entry are separate records, joined by “and”; a condition that tells them apart may be missing. Identical values can stand only once. Entries after “also recorded” stand apart in the source; their conditions may differ.

Assays:
[1] = target: T1, galectin-4C (residues 153–323) (Homo sapiens, UniProt P56470); assay: TFS of galectin-4C-ligand interaction; type: binding; details: galectin-4C 5 µM, PBS, 25 °C
T1 construct: His-tag (pET47b, HRV3C-cleavable) (cleaved yes); made in house; host or cells: E. coli BL21(DE3)
T1 sequence (P56470 153-323): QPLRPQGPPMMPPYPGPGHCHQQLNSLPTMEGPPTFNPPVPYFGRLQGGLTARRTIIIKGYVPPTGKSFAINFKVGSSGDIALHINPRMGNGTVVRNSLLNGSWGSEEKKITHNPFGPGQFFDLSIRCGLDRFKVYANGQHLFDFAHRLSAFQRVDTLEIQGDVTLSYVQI
Protocol: (§1) All tryptophan fluorescence spectroscopy experiments were performed using CARY Eclipse Fluorescence Spectrophotometer (Varian Inc. Santa Clara, California, USA) and a 3 ml quartz cuvette. […] The temperature was maintained constant at 25 °C by an external thermostatic water circulator. To measure galectin-ligand interactions, recombinant galectin-2 at 20 µM, galectin-3 at 10 µM and galectin-4, -4N and -4C at 5 µM were allowed to equilibrate in PBS for 10–30 minutes under constant stirring before being titrated with testing carbohydrate ligand solutions. […] Control buffer titrations to galectin solutions were performed in parallel for background determination in each experiment. Data from three independent experiments were analysed using nonlinear regression with ‘One Site- Specific Binding’ model (Y = Bmax * X/(KD + X) where X is the ligand concentration, Y is the fluorescence intensity, Bmax is the maximum specific binding and KD is the equilibrium binding constant) in GraphPad Prism 7.04.

[2] = target: T2, galectin-2 (Homo sapiens, UniProt P05162); assay: ITC of galectin-2-ligand interaction; type: binding; details: for binding by ITC (in words): 200 mM galactose
T2 construct: full length human galectin-2 (residues 1–132, UniProt code: P05162); 6xHis-SUMO (N, cleaved yes); made in house; host or cells: E. coli BL21(DE3)
T2 sequence (P05162 1-132): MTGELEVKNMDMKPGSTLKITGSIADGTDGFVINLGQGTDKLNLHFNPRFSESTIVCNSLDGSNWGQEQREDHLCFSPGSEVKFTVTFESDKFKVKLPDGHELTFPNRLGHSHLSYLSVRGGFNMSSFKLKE
Protocol: (§2) ITC experiments were performed at 25 °C using a MicroCal iTC200 microcalorimeter (Malvern Analytical Ltd, Malvern, UK) with 200 µl cell capacity and 40 µl injection syringe volume. All galectins were used at 100 µM in PBS and the binding ligands were prepared in identical buffers. […] F3 was titrated into galectin-3 at concentration of 20 mM. Ligand-to-buffer and buffer-to-galectin titrations were performed as controls. Ligands were titrated in 19 injections of 2 µl aliquots with 120 s spacing between injections to allow baseline recovery. The ITC titration data were analysed using MicroCal Data Analysis for iTC200 which is an Origin 7.0-based software programme. A curve fit using the ‘One set of sites’ interaction model was used to determine the association constant (KA), stoichiometry of binding (N) and enthalpy change (∆H) for all the interactions of simple sugars with the galectins except F3, where a logistic fit was used due to the nature of F3 as a mixture of heterogeneous polysaccharides.

[3] = target: T3, galectin-4 (Homo sapiens, UniProt P56470); assay: ITC of galectin-4-ligand interaction; type: binding; details: for binding by ITC (in words): galectin-4 100 µM, 200 mM galactose
T3 construct: 6xHis-SUMO (N, cleaved yes); made in house; host or cells: E. coli BL21(DE3)
T3 sequence (P56470 1-323): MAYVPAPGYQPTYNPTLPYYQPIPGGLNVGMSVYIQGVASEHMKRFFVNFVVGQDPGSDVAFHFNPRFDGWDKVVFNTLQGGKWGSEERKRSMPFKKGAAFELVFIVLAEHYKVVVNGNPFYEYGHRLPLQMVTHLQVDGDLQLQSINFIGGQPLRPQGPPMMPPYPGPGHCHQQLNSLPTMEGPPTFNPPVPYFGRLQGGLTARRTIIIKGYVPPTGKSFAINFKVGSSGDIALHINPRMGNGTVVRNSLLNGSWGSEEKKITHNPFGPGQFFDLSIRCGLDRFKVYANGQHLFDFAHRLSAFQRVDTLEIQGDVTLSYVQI
Protocol: as §2

[4] = target: T4, galectin-4N (residues 1–152) (Homo sapiens, UniProt P56470); assay: TFS of galectin-4N-ligand interaction; type: binding; details: galectin-4N 5 µM, PBS, 25 °C
T4 construct: N-terminal galectin-4 (galectin-4N, residues 1–152); His-tag (pET47b, HRV3C-cleavable) (cleaved yes); made in house; host or cells: E. coli BL21(DE3)
T4 sequence (P56470 1-152): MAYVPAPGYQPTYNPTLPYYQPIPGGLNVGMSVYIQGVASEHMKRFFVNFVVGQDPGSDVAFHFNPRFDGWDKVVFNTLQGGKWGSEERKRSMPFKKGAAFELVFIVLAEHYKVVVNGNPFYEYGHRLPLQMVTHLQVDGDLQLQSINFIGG
Protocol: as §1

[5] = target: T5, galectin-3 (Homo sapiens, UniProt P17931); assay: Tryptophan fluorescence spectroscopy (TFS) of galectin-3-ligand interaction; type: binding; details: for Kd: galectin-3 10 µM, PBS, 25 °C, One site-Specific binding model; for maximum ligand binding-induced change of intrinsic fluorescence intensity: galectin-3, buffer control titration subtracted; for shift of fluorescence emission maximum to lower wavelength (blue shift): galectin-3, ligand titration
T5 construct: full-length human galectin-3 (residues 1–250, UniProt code: P17931); His-tag (N, cleaved yes); made in house; host or cells: E. coli BL21(DE3)
Protocol: as §1, with “circulator.” for “circulator. To measure galectin-ligand interactions, recombinant galectin-2 at 20 µM, galectin-3 at 10 µM and galectin-4, -4N and -4C at 5 µM were allowed to equilibrate in PBS for 10–30 minutes under constant stirring before being titrated with testing carbohydrate ligand solutions.”

[6] = target: T1, galectin-4C (residues 153–323); assay: ITC of galectin-4C-ligand interaction; type: binding; details: for binding by ITC (in words): galectin-4C 100 µM
Protocol: as §2

[7] = target: T5, galectin-3; assay: Isothermal titration calorimetry (ITC) of galectin-3-ligand interaction; type: binding; details: for Kd: galectin-3 100 µM, PBS, 25 °C
Protocol: ITC experiments were performed at 25 °C using a MicroCal iTC200 microcalorimeter (Malvern Analytical Ltd, Malvern, UK) with 200 µl cell capacity and 40 µl injection syringe volume. […] Ligand-to-buffer and buffer-to-galectin titrations were performed as controls. Ligands were titrated in 19 injections of 2 µl aliquots with 120 s spacing between injections to allow baseline recovery. The ITC titration data were analysed using MicroCal Data Analysis for iTC200 which is an Origin 7.0-based software programme.

[8] = tested on: galectin-4C; set-up: method as in PMID 15464951, PMID 26077389; details: fluorescence anisotropy, LacNAc vs lactose; cited from earlier work
[9] = target: T3, galectin-4; assay: TFS of galectin-4-ligand interaction; type: binding; details: for Kd: full-length galectin-4 5 µM, PBS, 25 °C; for blue shift of maximum fluorescence peak: galectin-4; for maximum ligand binding-induced fluorescence intensity change: galectin-4, control buffer titration deducted
Protocol: as §1

[10] = target: T2, galectin-2; assay: TFS of galectin-2-ligand interaction; type: binding; details: for blue shift of maximum fluorescence peak: galectin-2; for Kd: galectin-2 20 µM, PBS, 25 °C, mean ± SEM; for maximum ligand binding-induced fluorescence intensity change: galectin-2, buffer titration subtracted
Protocol: as §1

[11] = target: T4, galectin-4N (residues 1–152); assay: ITC of galectin-4N-ligand interaction; type: binding; details: galectin-4N 100 µM, 200 mM galactose
Protocol: as §2

[12] = target: galectin-2; set-up: method as in PMID 12223272; details: frontal affinity chromatography, read-out: binding affinity; cited from earlier work
[13] = target: galectin-4; set-up: method as in PMID 15546874; details: SPR, read-out: binding affinity; cited from earlier work

T5 sequence (P17931 whole entry, the tested form may be a part): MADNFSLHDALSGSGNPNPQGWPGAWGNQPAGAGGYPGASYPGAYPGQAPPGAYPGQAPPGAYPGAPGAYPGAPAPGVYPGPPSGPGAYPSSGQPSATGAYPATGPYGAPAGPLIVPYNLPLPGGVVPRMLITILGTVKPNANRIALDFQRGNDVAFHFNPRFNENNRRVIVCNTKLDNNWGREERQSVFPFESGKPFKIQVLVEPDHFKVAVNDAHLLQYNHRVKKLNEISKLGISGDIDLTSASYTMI

CC(=O)N[C@H]1C(O)O[C@H](CO)[C@@H](O[C@@H]2O[C@H](CO)[C@H](O)[C@H](O)[C@H]2O)[C@@H]1O (stereo partly drawn) [LacNAc, N-Acetyl-D-lactosamine]
Kd [1]: 12.1 ± 0.7 mM
Kd ([2]; ITC, galectin-2 100 µM, PBS, 25 °C, mean ± SEM, n=3, read-out: KD): 0.554 ± 0.108 mM
fold stronger binding than lactose ([2]; ITC, galectin-2, LacNAc vs lactose): ~ 2 fold
Kd ([3]; full-length galectin-4 100 µM, PBS, 25 °C, read-out: KD): 3.5 ± 0.5 mM
Kd [4]: 7.4 ± 0.9 mM
Kd ([5]; mean ± SEM, n=3): 0.0279 ± 0.0046 mM
maximum ligand binding-induced change of intrinsic fluorescence intensity [5]: 26 units
shift of fluorescence emission maximum to lower wavelength (blue shift) [5]: 9–10 nm
binding by ITC (in words) [6]: very too weak and mostly beyond detection
enthalpy ∆H of binding ([7]; galectin-3): -16.5 kcal/mol
Kd ([7]; One set of sites model, mean ± SEM, n=3): 0.024 ± 0.0036 mM
difference in enthalpy change to lactose ([7]; galectin-3, LacNAc vs lactose): 4.4 kcal/mol
fold stronger binding than lactose ([7]; galectin-3, LacNAc vs lactose): ~ 4 fold
difference in binding enthalpy to galactose ([7]; galectin-3, weakest ligand galactose to strongest ligand LacNAc): 6.1 kcal/mol
fold weaker binding than lactose [8]: at least 11 fold
Kd ([9]; read-out: KD): 9.3 ± 0.8 mM
blue shift of maximum fluorescence peak [9]: 5 nm
maximum ligand binding-induced fluorescence intensity change [9]: 50 units
blue shift of maximum fluorescence peak [10]: 10 nm
Kd ([10]; n=3, read-out: KD): 0.654 ± 0.155 mM
maximum ligand binding-induced fluorescence intensity change [10]: 52 units

O=C[C@H](O)[C@@H](O)[C@@H](O)[C@H](O)CO [galactose, D-galactose]
Kd [1]: 33.8 ± 3 mM
Kd [2]: > 1 mM
binding by ITC (in words) ([2]; ITC, galectin-2 100 µM): too weak to be determined
binding by ITC (in words) ([2]; ITC, galectin-2 100 µM, listed as Galactose): too weak to be reliably determined
binding by ITC (in words) [3]: too weak to be determined
binding by ITC (in words) ([3]; listed as Galactose): too weak to be reliably determined
Kd ([3]; galectin-4, Fig. 5I, read-out: KD (class symbol in figure)): > 1 mM
Kd [4]: 43.3 ± 5.2 mM
Kd [5]: 4.7 mM and ~5 mM
maximum ligand binding-induced change of intrinsic fluorescence intensity [5]: 28 units
shift of fluorescence emission maximum to lower wavelength (blue shift) [5]: 9–10 nm
binding by ITC (in words) [6]: very too weak and mostly beyond detection
Kd ([6]; galectin-4C, Fig. 7G,I, read-out: KD (class symbol in figure)): > 1 mM
Kd ([7]; One set of sites model (F3: logistic fit)): 3.1 ± 1.1 mM
binding by ITC (in words) [11]: very little, if any, binding taking place; also recorded: very too weak and mostly beyond detection
Kd ([9]; KD): 33.6 mM and 30 to 40 mM
blue shift of maximum fluorescence peak [9]: 4 nm
maximum ligand binding-induced fluorescence intensity change [9]: 80 units
Kd ([10]; KD, n=3): 35.6 mM and 30 to 40 mM
blue shift of maximum fluorescence peak [10]: 6 nm
maximum ligand binding-induced fluorescence intensity change [10]: 57 units

α-lactose
maximum ligand binding-induced change of intrinsic fluorescence intensity [5]: 21 units
shift of fluorescence emission maximum to lower wavelength (blue shift) [5]: 9–10 nm
Kd [12]: 1.1 mM
blue shift of maximum fluorescence peak [9]: 10 nm
maximum ligand binding-induced fluorescence intensity change [9]: 49 units
blue shift of maximum fluorescence peak [10]: 7 nm
maximum ligand binding-induced fluorescence intensity change [10]: 59 units
Kd [13]: 0.86 mM
